This note sets out measurements from patent US11299485B2, “Thiophene derivative and use thereof” (FUJIMOTO CO., LTD., priority 2018, dated 2022).

Molecules are shown by their SMILES.

Common to all, as to type: cell-based
One assay relates to Daudi cells. Description: Human Burkitt lymphoma cell line Daudi proliferation suppression test. The following applies: 72 h, compound 10 μM, 3 days, WST-8, read-out: cell survival rate (% of control) Daudi. From the text:
Example 54: Human Burkitt Lymphoma Cell Line Daudi Proliferation Suppression Test
(§1) Daudi cells (National Institutes of Biomedical Innovation, Health and Nutrition (NIBIOHN), JCRB9071) were suspended in medium B, and diluted as appropriate with 0.4% trypan blue solution (Sigma-Aldrich Co. LLC.). The number of viable cells was counted with a hemocytometer (ERMA INC.). A cell suspension obtained by diluting with medium B such that the value obtained was 1.3×10^5 cells/mL was dispensed into a Falcon 96 well flat bottom plate (Corning Incorporated) at 75 μL/well, and culture was started at 37° C. under 5% CO2 stream. The next day, a solution obtained by diluting 4 mM DMSO solution of the test compound 100-fold with medium B was added by 25 μL to each well (final concentration of test compound 10 μM). 25 μL of a solution obtained by diluting DMSO 100-fold with medium B was added to the control well. After culturing at 37° C. in a 5% CO2 stream for 3 days, the cell proliferation activity was measured according to the instruction manual attached to WST-8 Kit (KISHIDA CHEMICAL Co., Ltd.).
A general note: Formazan colour is commonly taken as a measure of viable cells.

In a further assay the test system is REC-1 cells. Description: Human mantle cell lymphoma cell line REC-1 proliferation suppression test. The following applies: Rec1, 72 h, compound 10 μM, 3 days, WST-8, read-out: cell survival rate (% of control) REC-1. As to the method:
Example 53: Human Mantle Cell Lymphoma Cell Line REC-1 Proliferation Suppression Test
as §1, with “REC-1” for “Daudi”, “(ATCC, CRL-3004)” for “(National Institutes of Biomedical Innovation, Health and Nutrition (NIBIOHN), JCRB9071)”, “(Funakoshi Co., Ltd.).” for “(ERMA INC.).”

The test system of another assay is TNF-α production. As to the kind of experiment: Human TNF-α production suppression test (LPS-stimulated peripheral blood mononuclear cells, ELISA). The conditions noted are these: PBMC, compound 10 μg/mL, 24 hr, control well = 100, read-out: TNF-α production suppressive rate (%). As for the experimental part: Example 50: Human TNF-α Production Suppression Test
Peripheral blood of a healthy adult was collected in a vacuum blood collection tube (Terumo, containing EDTA/2Na), and then diluted two-fold with an equal volume of OTSUKA NORMAL SALINE (Otsuka Pharmaceutical Co., Ltd.). The diluted blood was mixed with Lymphoprep (AXIS-SHIELD) in half the volume of the diluted blood, dispensed into a 15 mL conical tube, and centrifuged at room temperature for 20 min (2,100 rpm). The mononuclear cells accumulated at the interface between Lymphoprep and plasma was transferred to a 50 mL conical tube, diluted with OTSUKA NORMAL SALINE, and the mononuclear cells suspension was centrifuged at room temperature for 10 min (1,150 rpm) and then the supernatant was removed. The mononuclear cells fraction obtained as a precipitate was suspended in an appropriate amount of 10% fetal calf serum (Thermo Fisher Scientific)-containing RPMI1640 medium (Thermo Fisher Scientific, hereinafter abbreviated as medium A), and diluted as appropriate with 0.4% trypan blue solution (Sigma-Aldrich Co. LLC.). The number of viable cells was counted with a hemocytometer (ERMA INC.). It was diluted with medium A such that the value obtained was 5×10^5 cells/mL. On the other hand, 75 μL of medium A, 5 μL of 0.4 mg/mL test compound solution (DMSO solution 10-fold diluted with medium A), and 20 μL of 10 μg/mL lipopolysaccharide (Sigma-Aldrich Co. LLC.) solution (diluted with medium A) were each added in advance to the same well of a Falcon 96-well flat bottom plate (Corning Incorporated), and the above-mentioned cell suspension was dispensed at 0.1 mL/well. 5 μL of DMSO diluted 10-fold with medium A was added to the control well instead of the compound solution. After culturing at 37° C. in a 5% CO2 stream for 24 hr, the culture solution was centrifuged at 4° C., 1,000 rpm for 3 min and the supernatant was recovered. The content of TNF-α in the supernatant was measured using an ELISA kit (Peprotech) according to a conventional method. The amount of TNF-α produced in the well containing the test compound was determined with the amount of TNF-α produced in the control well as 100, and the suppression rate was calculated for each test.

Take `O=C1CCC(n2cc(-c3cscc3OCc3ccncc3)nn2)C(=O)N1` (stereo not drawn) [compound 33, 3-{4-[4-(pyridin-4-ylmethoxy)thiophen-3-yl]-1H-1,2,3-triazol-1-yl}piperidine-2,6-dione]: the viability at 10 µM with Daudi cells and in the assay with REC-1 cells was 27% in each case. In the assay on TNF-α production, the inhibition at 10 µg/mL is 100%.
Consider `Cl.O=C1CCC(n2cc(-c3cscc3OCc3ccc(CN4CCCC4)cc3)nn2)C(=O)N1` (stereo not drawn) [compound 41, 3-(4-{4-[4-(pyrrolidin-1-ylmethyl)benzyloxy]thiophen-3-yl}-1H-1,2,3-triazol-1-yl)piperidine-2,6-dione hydrochloride], for which the viability at 10 µM in the assay on Daudi cells was 24%; in the assay with REC-1 cells it was 20%. For the same molecule, in the assay on TNF-α production, the inhibition at 10 µg/mL came to 93%.
Consider `Cc1cscc1-c1cn(C2CCC(=O)NC2=O)nn1` (stereo not drawn) [compound 7, 3-[4-(4-methylthiophen-3-yl)-1H-1,2,3-triazol-1-yl]piperidine-2,6-dione], for which the viability at 10 µM in the assay on Daudi cells stood at 75%; with REC-1 cells it was 44%. The inhibition at 10 µg/mL in the assay on TNF-α production turned out to be 73%.
As to `O=C1CCC(n2cc(-c3cscc3OCc3ccccn3)nn2)C(=O)N1` (stereo not drawn) [compound 34, 3-{4-[4-(pyridin-2-ylmethoxy)thiophen-3-yl]-1H-1,2,3-triazol-1-yl}piperidine-2,6-dione], the viability at 10 µM in the assay on Daudi cells is 48%; in the assay on REC-1 cells, 33%. For the same molecule, in the assay on TNF-α production, the inhibition at 10 µg/mL was found to be 97%.
Regarding `Cl.O=C1CCC(n2cc(-c3cscc3OCc3ccc(CN4CCCCC4)cc3)nn2)C(=O)N1` (stereo not drawn) [compound 42, 3-(4-{4-[4-(piperidin-1-ylmethyl)benzyloxy]thiophen-3-yl}-1H-1,2,3-triazol-1-yl)piperidine-2,6-dione hydrochloride], the results for the viability at 10 µM with Daudi cells and in the assay with REC-1 cells were 17% and 13%, respectively. Besides, the inhibition at 10 µg/mL in the assay on TNF-α production stood at 96%.
For `O=C1CCC(n2cc(-c3ccsc3)nn2)C(=O)N1` (stereo not drawn) [compound 2, 3-[4-(thiophen-3-yl)-1H-1,2,3-triazol-1-yl]piperidine-2,6-dione] the same measures were 71%, 36% and 98%.
Take `O=C1CCC(n2cc(-c3cscc3OCc3cccc(CN4CCOCC4)c3)nn2)C(=O)N1` (stereo not drawn) [compound 39, 3-(4-{4-[3-(morpholinomethyl)benzyloxy]thiophen-3-yl}-1H-1,2,3-triazol-1-yl)piperidine-2,6-dione]: the viability at 10 µM in the assay with Daudi cells was 30%; in the assay with REC-1 cells, 24%. The inhibition at 10 µg/mL in the assay on TNF-α production worked out at 81%.
Consider `O=C1CCC(n2cc(-c3cscc3OCc3ccccc3CN3CCOCC3)nn2)C(=O)N1` (stereo not drawn) [compound 40, 3-(4-{4-[2-(morpholinomethyl)benzyloxy]thiophen-3-yl}-1H-1,2,3-triazol-1-yl)piperidine-2,6-dione], for which the viability at 10 µM in the assay on Daudi cells is 46%; with REC-1 cells, 33%. In addition, the inhibition at 10 µg/mL with TNF-α production came out at 86%.
`CC(=O)c1ccc(-c2cn(C3CCC(=O)NC3=O)nn2)s1` (stereo not drawn) [compound 8, 3-[4-(5-acetylthiophen-2-yl)-1H-1,2,3-triazol-1-yl]piperidine-2,6-dione]: the figures for the viability at 10 µM in the assay on Daudi cells and with REC-1 cells were 93% and 99%, respectively. Moreover, the inhibition at 10 µg/mL in the assay on TNF-α production turned out to be 64%.
As for `COc1c(-c2cn(C3CCC(=O)NC3=O)nn2)csc1C` (stereo not drawn) [compound 15, 3-[4-(4-methoxy-5-methylthiophen-3-yl)-1H-1,2,3-triazol-1-yl]piperidine-2,6-dione], the viability at 10 µM in the assay on Daudi cells is 61%; in the assay on REC-1 cells it was 36%. Besides, in the assay with TNF-α production, the inhibition at 10 µg/mL came out at 85%.
Consider `COCc1ccc(COc2cscc2-c2cn(C3CCC(=O)NC3=O)nn2)cc1` (stereo not drawn) [compound 37, 3-(4-{4-[4-(methoxymethyl)benzyloxy]thiophen-3-yl}-1H-1,2,3-triazol-1-yl)piperidine-2,6-dione], for which the viability at 10 µM with Daudi cells amounted to 20%; in the assay with REC-1 cells, 17%. The inhibition at 10 µg/mL in the assay on TNF-α production is 81%.
Consider `O=C1CCC(n2nnc(-c3ccsc3)c2Cl)C(=O)N1` (stereo not drawn) [compound 4, 3-[5-chloro-4-(thiophen-3-yl)-1H-1,2,3-triazol-1-yl]piperidine-2,6-dione], for which the viability at 10 µM in the assay with Daudi cells turned out to be 82%; with REC-1 cells it was 93%. In addition, the inhibition at 10 µg/mL with TNF-α production stood at 67%.
For `COc1cc(-c2cn(C3CCC(=O)NC3=O)nn2)cs1` (stereo not drawn) [compound 20, 3-[4-(5-methoxythiophen-3-yl)-1H-1,2,3-triazol-1-yl]piperidine-2,6-dione], the results for the viability at 10 µM in the assay on Daudi cells and in the assay with REC-1 cells were 55% and 22%, respectively. For the same molecule, the inhibition at 10 µg/mL in the assay with TNF-α production amounted to 87%.
Turning to `O=C1CCC(n2cc(-c3cscc3OC3CCCC3)nn2)C(=O)N1` (stereo not drawn) [compound 27, 3-{4-[4-(cyclopentyloxy)thiophen-3-yl]-1H-1,2,3-triazol-1-yl}piperidine-2,6-dione], the viability at 10 µM in the assay on Daudi cells was found to be 70%; with REC-1 cells it was 80%. Also, the inhibition at 10 µg/mL with TNF-α production is 39%.
In the case of `CN(C)Cc1ccc(COc2cscc2-c2cn(C3CCC(=O)NC3=O)nn2)cc1.Cl` (stereo not drawn) [compound 46, 3-[4-(4-{4-[(dimethylamino)methyl]benzyloxy}thiophen-3-yl)-1H-1,2,3-triazol-1-yl]piperidine-2,6-dione hydrochloride], the values for the viability at 10 µM in the assay on Daudi cells and in the assay with REC-1 cells were 29% and 23%, respectively. In addition, the inhibition at 10 µg/mL in the assay on TNF-α production amounted to 80%.
The like results for `O=C1CCC(n2cc(-c3ccc(Br)s3)nn2)C(=O)N1` (stereo not drawn) [compound 12, 3-[4-(5-bromothiophen-2-yl)-1H-1,2,3-triazol-1-yl]piperidine-2,6-dione] were, in that order, 87%, 77% and 84%.
For `CC(C)Oc1cscc1-c1cn(C2CCC(=O)NC2=O)nn1` (stereo not drawn) [compound 26, 3-[4-(4-isopropoxythiophen-3-yl)-1H-1,2,3-triazol-1-yl]piperidine-2,6-dione] the same measures were 51%, 23% and 83%.
Take `O=C1CCC(n2cc(-c3cscc3OCc3ccccc3)nn2)C(=O)N1` (stereo not drawn) [compound 32, 3-{4-[4-(benzyloxy)thiophen-3-yl]-1H-1,2,3-triazol-1-yl}piperidine-2,6-dione]: the viability at 10 µM was found to be 23% in the assay on Daudi cells and 15% with REC-1 cells. In addition, the inhibition at 10 µg/mL in the assay with TNF-α production is 100%.
For `COc1cscc1-c1cn(C2CCC(=O)NC2=O)nn1` (stereo not drawn) [compound 19, 3-[4-(4-methoxythiophen-3-yl)-1H-1,2,3-triazol-1-yl]piperidine-2,6-dione], the viability at 10 µM in the assay with Daudi cells and with REC-1 cells was 4% throughout. In addition, the inhibition at 10 µg/mL in the assay with TNF-α production is 83%.
Take `Cc1cc(-c2cn(C3CCC(=O)NC3=O)nn2)cs1` (stereo not drawn) [compound 6, 3-[4-(5-methylthiophen-3-yl)-1H-1,2,3-triazol-1-yl]piperidine-2,6-dione]: the values for the viability at 10 µM in the assay on Daudi cells and with REC-1 cells were 79% and 52%, respectively. The inhibition at 10 µg/mL with TNF-α production turned out to be 67%.
